Read-outs that look alike come from different tables or passages of the source.
Experiments:
[1] = system: forty-four human cancer cell lines; assay: Cell proliferation assay (ATPlite, 72 hours) in the 44 cell line Oncolines panel; assay type: cell-based; details: Homo sapiens
[2] = target: panel of more than 300 wild-type and mutant kinases (313 kinase panel) (Homo sapiens, UniProt P00519, E255K); assay: Kinase profiling in a biochemical assay panel (mobility shift assays and ELISA), %-inhibition at 1 μM; selectivity entropy; details: kinase ABL(E255K); 1 μM compound
Chain of panel of more than 300 wild-type and mutant kinases (313 kinase panel) (Homo sapiens, UniProt P00519, E255K) (P00519 whole entry E255K): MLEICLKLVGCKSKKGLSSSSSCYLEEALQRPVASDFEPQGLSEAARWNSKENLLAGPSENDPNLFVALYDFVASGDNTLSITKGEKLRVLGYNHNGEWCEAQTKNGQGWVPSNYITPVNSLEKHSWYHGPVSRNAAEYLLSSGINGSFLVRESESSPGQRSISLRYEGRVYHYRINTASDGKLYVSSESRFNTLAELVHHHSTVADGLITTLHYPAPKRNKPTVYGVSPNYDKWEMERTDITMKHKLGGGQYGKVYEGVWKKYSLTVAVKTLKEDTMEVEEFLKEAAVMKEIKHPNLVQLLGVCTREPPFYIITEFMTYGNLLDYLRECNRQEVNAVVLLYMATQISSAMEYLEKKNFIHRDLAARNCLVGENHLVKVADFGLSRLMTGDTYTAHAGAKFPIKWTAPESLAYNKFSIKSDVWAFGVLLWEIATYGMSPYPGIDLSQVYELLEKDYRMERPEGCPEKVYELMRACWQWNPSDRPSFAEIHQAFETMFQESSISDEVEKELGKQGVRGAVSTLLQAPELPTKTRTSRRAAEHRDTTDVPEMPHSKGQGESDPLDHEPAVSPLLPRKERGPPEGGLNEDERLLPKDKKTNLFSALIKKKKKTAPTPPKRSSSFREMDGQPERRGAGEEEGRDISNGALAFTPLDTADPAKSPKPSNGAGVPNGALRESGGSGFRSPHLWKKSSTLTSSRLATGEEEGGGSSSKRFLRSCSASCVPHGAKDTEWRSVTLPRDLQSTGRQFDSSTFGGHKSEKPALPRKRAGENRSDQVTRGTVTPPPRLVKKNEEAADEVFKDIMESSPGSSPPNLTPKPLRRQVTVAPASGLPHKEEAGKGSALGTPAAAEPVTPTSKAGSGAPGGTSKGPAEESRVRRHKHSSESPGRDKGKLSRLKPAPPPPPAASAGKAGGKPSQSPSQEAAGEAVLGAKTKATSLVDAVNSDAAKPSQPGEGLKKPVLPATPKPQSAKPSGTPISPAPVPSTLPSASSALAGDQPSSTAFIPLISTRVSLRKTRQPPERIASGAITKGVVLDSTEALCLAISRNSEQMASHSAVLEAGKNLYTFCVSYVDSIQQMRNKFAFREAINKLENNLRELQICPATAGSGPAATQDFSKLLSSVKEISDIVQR

[3] = target: panel of more than 300 wild-type and mutant kinases (313 kinase panel) (Homo sapiens, UniProt P04049); assay: as above; details: kinase RAF1; 1 μM
Chain of panel of more than 300 wild-type and mutant kinases (313 kinase panel) (Homo sapiens, UniProt P04049) (P04049 whole entry, stated change not applied): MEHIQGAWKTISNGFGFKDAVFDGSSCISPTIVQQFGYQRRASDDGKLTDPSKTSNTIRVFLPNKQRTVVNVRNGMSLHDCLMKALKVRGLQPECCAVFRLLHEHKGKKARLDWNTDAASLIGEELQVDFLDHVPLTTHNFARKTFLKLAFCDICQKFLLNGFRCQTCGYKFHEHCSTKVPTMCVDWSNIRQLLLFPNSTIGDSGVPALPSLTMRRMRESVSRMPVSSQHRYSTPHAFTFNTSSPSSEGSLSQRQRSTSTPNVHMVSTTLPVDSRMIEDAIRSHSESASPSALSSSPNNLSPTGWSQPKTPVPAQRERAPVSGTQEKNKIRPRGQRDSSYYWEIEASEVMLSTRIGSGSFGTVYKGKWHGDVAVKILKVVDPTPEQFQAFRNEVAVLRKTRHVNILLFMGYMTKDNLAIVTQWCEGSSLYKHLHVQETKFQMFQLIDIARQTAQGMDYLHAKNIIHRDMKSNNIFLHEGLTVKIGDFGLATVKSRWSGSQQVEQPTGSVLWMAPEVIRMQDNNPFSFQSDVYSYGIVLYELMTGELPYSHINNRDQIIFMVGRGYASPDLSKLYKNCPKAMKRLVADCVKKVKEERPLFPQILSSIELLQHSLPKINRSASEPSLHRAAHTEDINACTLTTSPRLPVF

[4] = target: panel of more than 300 wild-type and mutant kinases (313 kinase panel) (Homo sapiens, UniProt P10721, T670I); assay: as above
Chain of panel of more than 300 wild-type and mutant kinases (313 kinase panel) (Homo sapiens, UniProt P10721, T670I) (P10721 26-976 T670I): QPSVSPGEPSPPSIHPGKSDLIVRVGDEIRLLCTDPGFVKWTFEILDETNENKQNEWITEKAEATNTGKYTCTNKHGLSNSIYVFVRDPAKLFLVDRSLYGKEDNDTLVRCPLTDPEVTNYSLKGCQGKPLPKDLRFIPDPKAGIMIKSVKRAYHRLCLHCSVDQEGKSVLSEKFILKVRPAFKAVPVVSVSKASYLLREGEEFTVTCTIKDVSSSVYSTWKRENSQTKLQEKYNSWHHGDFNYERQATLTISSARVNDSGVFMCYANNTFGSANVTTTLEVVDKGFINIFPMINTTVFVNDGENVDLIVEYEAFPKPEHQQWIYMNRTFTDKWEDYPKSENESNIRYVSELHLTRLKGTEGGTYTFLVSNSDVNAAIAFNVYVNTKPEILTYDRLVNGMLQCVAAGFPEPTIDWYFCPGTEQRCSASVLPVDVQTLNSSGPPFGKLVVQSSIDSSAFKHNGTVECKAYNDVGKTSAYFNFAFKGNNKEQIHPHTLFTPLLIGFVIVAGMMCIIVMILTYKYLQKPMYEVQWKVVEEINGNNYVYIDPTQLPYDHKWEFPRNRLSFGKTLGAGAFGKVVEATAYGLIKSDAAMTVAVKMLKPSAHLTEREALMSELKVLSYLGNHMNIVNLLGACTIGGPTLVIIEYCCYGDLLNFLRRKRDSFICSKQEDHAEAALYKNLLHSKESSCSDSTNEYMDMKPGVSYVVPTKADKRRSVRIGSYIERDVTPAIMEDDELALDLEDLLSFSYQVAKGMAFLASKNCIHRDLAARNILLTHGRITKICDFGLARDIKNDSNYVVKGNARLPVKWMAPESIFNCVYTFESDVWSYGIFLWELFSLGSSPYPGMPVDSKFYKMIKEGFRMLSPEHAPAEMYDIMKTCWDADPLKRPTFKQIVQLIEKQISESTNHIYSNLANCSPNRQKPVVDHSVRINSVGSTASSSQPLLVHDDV

[5] = target: panel of more than 300 wild-type and mutant kinases (313 kinase panel) (Homo sapiens, UniProt Q04912); assay: as above; details: kinase RON; 1 μM
[6] = target: panel of more than 300 wild-type and mutant kinases (313 kinase panel) (Homo sapiens, UniProt Q8N4C8); assay: as above
Chain of panel of more than 300 wild-type and mutant kinases (313 kinase panel) (Homo sapiens, UniProt Q8N4C8) (Q8N4C8 whole entry, change not shown): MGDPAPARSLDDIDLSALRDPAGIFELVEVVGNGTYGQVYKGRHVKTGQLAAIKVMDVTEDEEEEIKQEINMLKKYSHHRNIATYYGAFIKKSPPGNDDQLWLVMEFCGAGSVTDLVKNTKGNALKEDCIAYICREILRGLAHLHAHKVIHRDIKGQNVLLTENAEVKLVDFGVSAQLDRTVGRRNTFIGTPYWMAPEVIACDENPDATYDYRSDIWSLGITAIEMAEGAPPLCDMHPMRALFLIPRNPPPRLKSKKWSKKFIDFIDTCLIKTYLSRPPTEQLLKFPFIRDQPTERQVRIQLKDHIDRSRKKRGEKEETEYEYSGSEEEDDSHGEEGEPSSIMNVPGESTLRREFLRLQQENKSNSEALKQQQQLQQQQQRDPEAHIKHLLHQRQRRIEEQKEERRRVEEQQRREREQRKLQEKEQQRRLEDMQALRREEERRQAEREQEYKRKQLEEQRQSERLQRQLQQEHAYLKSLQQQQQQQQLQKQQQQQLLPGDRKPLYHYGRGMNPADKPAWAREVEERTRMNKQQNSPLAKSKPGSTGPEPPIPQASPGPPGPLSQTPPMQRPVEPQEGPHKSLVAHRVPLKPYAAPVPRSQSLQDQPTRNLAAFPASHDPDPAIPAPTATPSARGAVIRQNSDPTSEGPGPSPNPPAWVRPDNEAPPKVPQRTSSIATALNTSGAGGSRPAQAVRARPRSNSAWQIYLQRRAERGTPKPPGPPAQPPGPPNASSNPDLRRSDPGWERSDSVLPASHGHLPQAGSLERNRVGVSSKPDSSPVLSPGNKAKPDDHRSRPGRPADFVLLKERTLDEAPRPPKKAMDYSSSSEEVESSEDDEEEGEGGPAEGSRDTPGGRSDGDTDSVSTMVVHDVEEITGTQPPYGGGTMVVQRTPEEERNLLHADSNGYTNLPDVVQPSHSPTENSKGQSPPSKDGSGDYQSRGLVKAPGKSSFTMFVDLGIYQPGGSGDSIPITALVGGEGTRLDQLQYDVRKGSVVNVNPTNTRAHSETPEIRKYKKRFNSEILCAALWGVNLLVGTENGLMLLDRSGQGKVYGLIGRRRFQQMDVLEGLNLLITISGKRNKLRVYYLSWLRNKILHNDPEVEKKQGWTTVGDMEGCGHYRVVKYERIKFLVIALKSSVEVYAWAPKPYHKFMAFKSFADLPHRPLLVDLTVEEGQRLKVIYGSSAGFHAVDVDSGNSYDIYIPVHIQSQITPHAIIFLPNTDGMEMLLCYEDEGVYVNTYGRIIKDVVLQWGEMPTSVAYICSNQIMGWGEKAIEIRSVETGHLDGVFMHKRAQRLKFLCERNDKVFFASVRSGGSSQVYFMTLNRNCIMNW

[7] = target: panel of more than 300 wild-type and mutant kinases (313 kinase panel) (Homo sapiens, UniProt Q9HC98); assay: as above; details: kinase NEK6; 1 μM
[8] = target: T1, panel of more than 300 wild-type and mutant kinases (313 kinase panel) (Homo sapiens, UniProt Q9UL54); assay: as above; details: kinase TAOK2; 1 μM
T1 sequence (Q9UL54 1-1235): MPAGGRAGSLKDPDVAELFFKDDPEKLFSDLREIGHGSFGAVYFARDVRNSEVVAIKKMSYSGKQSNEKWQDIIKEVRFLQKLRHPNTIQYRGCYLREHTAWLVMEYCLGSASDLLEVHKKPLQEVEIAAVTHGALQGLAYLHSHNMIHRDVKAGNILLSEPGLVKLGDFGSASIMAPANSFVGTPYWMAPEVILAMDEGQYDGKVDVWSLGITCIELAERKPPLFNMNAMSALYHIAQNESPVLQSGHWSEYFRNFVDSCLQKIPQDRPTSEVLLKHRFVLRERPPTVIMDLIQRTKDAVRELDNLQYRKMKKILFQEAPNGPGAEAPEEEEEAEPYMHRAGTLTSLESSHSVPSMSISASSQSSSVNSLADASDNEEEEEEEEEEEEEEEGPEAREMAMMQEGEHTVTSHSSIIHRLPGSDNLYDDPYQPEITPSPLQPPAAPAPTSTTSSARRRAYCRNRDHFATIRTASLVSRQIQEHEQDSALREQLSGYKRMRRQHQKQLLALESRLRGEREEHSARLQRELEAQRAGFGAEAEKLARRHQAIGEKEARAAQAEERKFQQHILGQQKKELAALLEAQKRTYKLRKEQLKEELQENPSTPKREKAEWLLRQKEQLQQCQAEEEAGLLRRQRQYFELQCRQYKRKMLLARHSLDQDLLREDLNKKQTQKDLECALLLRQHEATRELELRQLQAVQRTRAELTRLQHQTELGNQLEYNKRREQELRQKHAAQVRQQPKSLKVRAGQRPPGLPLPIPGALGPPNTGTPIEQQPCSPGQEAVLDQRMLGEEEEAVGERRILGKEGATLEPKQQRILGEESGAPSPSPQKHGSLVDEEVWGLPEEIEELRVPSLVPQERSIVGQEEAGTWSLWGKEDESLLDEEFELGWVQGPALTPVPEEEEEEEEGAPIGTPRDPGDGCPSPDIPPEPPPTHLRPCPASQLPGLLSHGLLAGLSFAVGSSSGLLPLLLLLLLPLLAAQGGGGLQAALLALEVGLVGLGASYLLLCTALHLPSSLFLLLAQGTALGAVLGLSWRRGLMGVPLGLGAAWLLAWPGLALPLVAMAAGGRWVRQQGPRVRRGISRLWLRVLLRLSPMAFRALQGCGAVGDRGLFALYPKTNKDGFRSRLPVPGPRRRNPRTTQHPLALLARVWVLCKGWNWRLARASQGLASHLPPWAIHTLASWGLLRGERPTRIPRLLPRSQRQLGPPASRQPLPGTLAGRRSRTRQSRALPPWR

[9] = 4-4 cell, read-out: cell panel IC50, J82
[10] = 4-4 cell, read-out: cell panel IC50, PA-1
[11] = 4-4 cell, read-out: cell panel IC50, SJCRH30
[12] = 4-4 cell, read-out: cell panel IC50, SR
[13] = 769-P, read-out: cell panel IC50, 769-P
[14] = 786-0, read-out: cell panel IC50, 786-0
[15] = A 172, read-out: cell panel IC50, A-172
[16] = A204, read-out: cell panel IC50, A-204
[17] = A498, read-out: cell panel IC50, A-498
[18] = A549, read-out: cell panel IC50, A-549
[19] = A-375, read-out: cell panel IC50, A375
[20] = A-427, read-out: cell panel IC50, A-427
[21] = ACHN, read-out: cell panel IC50, ACHN
[22] = AN3-CA, read-out: cell panel IC50, AN3 CA
[23] = AU565, read-out: cell panel IC50, AU-565
[24] = BT-20, read-out: cell panel IC50, BT-20
[25] = BT-549, read-out: cell panel IC50, BT-549
[26] = BXPC-3, read-out: cell panel IC50, BxPC-3
[27] = C-33-A, read-out: cell panel IC50, C-33 A
[28] = CAL-27, read-out: cell panel IC50, CAL 27
[29] = CCRF-CEM, read-out: cell panel IC50, CCRF-CEM
[30] = DLD-1, read-out: cell panel IC50, DLD-1
[31] = FaDu, read-out: cell panel IC50, FaDu
[32] = HCT-15, read-out: cell panel IC50, HCT-15
[33] = HCT-116, read-out: cell panel IC50, HCT-116
[34] = Hs-578T, read-out: cell panel IC50, Hs 578T
[35] = Jurkat E6.1, read-out: cell panel IC50, Jurkat E6.1
[36] = K562, read-out: cell panel IC50, K-562
[37] = LS174T, read-out: cell panel IC50, LS 174T
[38] = LoVo, read-out: cell panel IC50, LoVo
[39] = MG-63, read-out: cell panel IC50, MG-63
[40] = MOLT-4, read-out: cell panel IC50, MOLT-4
[41] = MeWo, read-out: cell panel IC50, MeWo
[42] = NCI-H82, read-out: cell panel IC50, NCI-H82
[43] = NCI-H460, read-out: cell panel IC50, NCI-H460
[44] = OVCAR-3, read-out: cell panel IC50, OVCAR-3
[45] = RPMI-7951, read-out: cell panel IC50, RPMI-7951
[46] = SHP77, read-out: cell panel IC50, SHP-77
[47] = SK-N-AS, read-out: cell panel IC50, SK-N-AS
[48] = SW48, read-out: cell panel IC50, SW48
[49] = SW480, read-out: cell panel IC50, SW480
[50] = SW-620, read-out: cell panel IC50, SW620
[51] = U2OS, read-out: cell panel IC50, U-2 OS
[52] = U-87 MG, 72 h, read-out: IC50 in cell proliferation assay (table S5 cellpanel data)

O=S(=O)(c1cccc2cnccc12)N1CCCNCC1 [fasudil]
IC50 [1, 9]: > 31.6 µM | IC50 [1, 10]: > 31.6 µM | IC50 [1, 11]: > 31.6 µM | IC50 [1, 12]: 14.6 µM | IC50 [1, 13]: > 31.6 µM | IC50 [1, 14]: > 31.6 µM | IC50 [1, 15]: > 31.6 µM | IC50 [1, 16]: > 31.6 µM | IC50 [1, 17]: > 31.6 µM | IC50 [1, 18]: > 31.6 µM | IC50 [1, 19]: 19.7 µM | IC50 [1, 20]: > 31.6 µM | IC50 [1, 21]: > 31.6 µM | IC50 [1, 22]: 29.8 µM | IC50 [1, 23]: > 31.6 µM | IC50 [1, 24]: > 31.6 µM | IC50 [1, 25]: > 31.6 µM | IC50 [1, 26]: > 31.6 µM | IC50 [1, 27]: > 31.6 µM | IC50 [1, 28]: > 31.6 µM | IC50 [1, 29]: > 31.6 µM | IC50 [1, 30]: > 31.6 µM | IC50 [1, 31]: > 31.6 µM | IC50 [1, 32]: > 31.6 µM | IC50 [1, 33]: > 31.6 µM | IC50 [1, 34]: > 31.6 µM | IC50 [1, 35]: > 31.6 µM | IC50 [1, 36]: > 31.6 µM | IC50 [1, 37]: > 31.6 µM | IC50 [1, 38]: > 31.6 µM | IC50 [1, 39]: > 31.6 µM | IC50 [1, 40]: > 31.6 µM | IC50 [1, 41]: > 31.6 µM | IC50 [1, 42]: > 31.6 µM | IC50 [1, 43]: > 31.6 µM | IC50 [1, 44]: > 31.6 µM | IC50 [1, 45]: > 31.6 µM | IC50 [1, 46]: > 31.6 µM | IC50 [1, 47]: > 31.6 µM | IC50 [1, 48]: > 31.6 µM | IC50 [1, 49]: > 31.6 µM | IC50 [1, 50]: > 31.6 µM | IC50 [1, 51]: > 31.6 µM | IC50 [1, 52]: > 31.6 µM | %-inhibition, ABL(E255K) [2]: -3% | %-inhibition of RAF1 [3]: 8% | %-inhibition of KIT(T670I) ([4]; kinase KIT(T670I), compound at 1 μM): 0.568% | %-inhibition of RON [5]: -6% | %-inhibition of MINK ([6]; kinase MINK, 1 μM): -1.41% | %-inhibition of NEK6 [7]: -2.46% | %-inhibition of TAOK2 [8]: -2.59%

CS(=O)(=O)CCNCc1ccc(-c2ccc3ncnc(Nc4ccc(OCc5cccc(F)c5)c(Cl)c4)c3c2)o1 [lapatinib]
IC50 [1, 9]: 15.5 µM | IC50 [1, 10]: 12.4 µM | IC50 [1, 11]: 12.3 µM | IC50 [1, 12]: 7.6 µM | IC50 [1, 13]: 8.8 µM | IC50 [1, 14]: 11.5 µM | IC50 [1, 15]: 13.8 µM | IC50 [1, 16]: 10.6 µM | IC50 [1, 17]: 9.97 µM | IC50 [1, 18]: 15.6 µM | IC50 [1, 19]: 14.9 µM | IC50 [1, 20]: 12.7 µM | IC50 [1, 21]: 5.79 µM | IC50 [1, 22]: 12 µM | IC50 [1, 23]: 0.137 µM | IC50 [1, 24]: 17.3 µM | IC50 [1, 25]: 16.7 µM | IC50 [1, 26]: 6.59 µM | IC50 [1, 27]: 0.446 µM | IC50 [1, 28]: 2.56 µM | IC50 [1, 29]: 10.1 µM | IC50 [1, 30]: 12.9 µM | IC50 [1, 31]: 0.902 µM | IC50 [1, 32]: 8.92 µM | IC50 [1, 33]: 13.8 µM | IC50 [1, 34]: 14.6 µM | IC50 [1, 35]: 7.05 µM | IC50 [1, 36]: 14.2 µM | IC50 [1, 37]: 7.07 µM | IC50 [1, 38]: 9.08 µM | IC50 [1, 39]: 12.3 µM | IC50 [1, 40]: 8.79 µM | IC50 [1, 41]: 14.5 µM | IC50 [1, 42]: 11.7 µM | IC50 [1, 43]: 16.2 µM | IC50 [1, 44]: > 31.6 µM | IC50 [1, 45]: 13.7 µM | IC50 [1, 46]: 14.1 µM | IC50 [1, 47]: 12.7 µM | IC50 [1, 48]: 22.8 µM | IC50 [1, 49]: 13.2 µM | IC50 [1, 50]: 21.1 µM | IC50 [1, 51]: 12.9 µM | IC50 [1, 52]: 10.5 µM | %-inhibition, ABL(E255K) [2]: -4.67% | %-inhibition of RAF1 [3]: 8% | %-inhibition of KIT(T670I) ([4]; 1 µM): 0% | %-inhibition of RON [5]: 1.17% | %-inhibition of MINK ([6]; 1 µM): -0.581% | %-inhibition of NEK6 [7]: -4.3% | %-inhibition of TAOK2 [8]: -5.44%
